Tests used:
[1] = tested on: rat air pouch model of crystal-induced arthropathy (MSU); test: Rat air pouch model, Example 5 (Compound 2 in combination with colchicine); format: in vivo
Description: Sodium hydroxide (40 g, Fisher Scientific) was dissolved in de-ionized water (100 mL, dH2O) to provide a 10N solution. Uric acid (16 g, Sigma) was added to de-ionized water (3400 mL) containing sodium hydroxide solution (11.8 mL, 10N) and heated to 60° C. with constant stirring. […] The resulting clear solution was cooled to 4-8° C., resulting in the formation of crystals, which were isolated by filtration, washed three times with de-ionized wa[…]) and dried at 37° C. The dried mono sodium urate crystals were sifted into an air-tight container for storage. […] Methylcellulose (0.4 g, Sigma) was dissolved in de-ionized water (100 mL) to provide a 0.4% solution used as vehicle. […] Test compounds were suspended in vehicle to provide the desired concentrations, and diluted accordingly. […] Male Sprague-Dawley rats (Charles River Laboratories, 160-180 g) were received, individually examined and housed in cages of five rats each. The animals were in apparent good health with no clinical signs of disease or distress. The rats were placed in quarantine with daily inspections, ear notched for identification purposes and shaved at the nape of the neck. The rats were anesthetized (isoflurane), and the nape of the neck was cleansed with 70% isopropanol (Butler Animal Health Supply) followed by povidone-iodine solution (Ricca Chemical Co.). Sterile air (30 mL, 0.2 μm, Millipore) was injected subcutaneously using a 23 G×11⁄2 inch needle fixed to a 30 mL syringe. The rats were returned to routine housing with no adverse reactions observed. The rats were anesthetized (isoflurane), and the nape of the neck was cleansed with 70% isopropanol (Butler Animal Health Supply) followed by povidone-iodine solution (Ricca Chemical Co.). Sterile air (15 mL, 0.11 μm, Millipore) was injected subcutaneously using a 23 G×11⁄2 inch needle fixed to a 20 mL syringe. The rats were returned to routine housing with no adverse reactions observed. The rats were weighed and sorted into treatment groups based on average body weight. As appropriate, the rats were dosed orally with test compound or vehicle (saline alone). […] Thirty minutes after SC injection or two hours after PO dosing, MSU (15 mL) was injected into the air pouch using an 18 G×2 inch needle fitted to a 20 mL syringe. Control group was injected with 15 mL sterile saline (vehicle). The injection sites were closed (collodion, Macron) and the rats returned to their cages with no adverse effects observed. Four hours after MSU/saline injection, the rats were anesthetized and heparinized saline (5 mL, 10 U/mL) was injected into the air pouch. […] An aliquot of the exudate was transferred to green Eppendorf tubes for total white blood cell (WBC) measurement. After allowing the MSU crystals to settle out for ten minutes, an aliquot of the exudate was transferred to heparinized microtainer tubes (Becton Dickinson) for differential white blood cell counts. The remainder of the exudate was centrifuged and an aliquot of the supernatants was dispensed to labeled clear Eppendorf tubes and stored at -80° C. The rats were exsanguinated into pre-chilled serum separator tubes, processed to serum, and 0.5 mL aliquot was stored at -80° C. in labeled Eppendorf tubes. […] 90 rats were used, divided into 9 groups of 10 animals, as follows: [table]

[2] = tested on: rat air pouch model of crystal-induced arthropathy (MSU); test: Rat air pouch model, Example 9 (Compound 4 in combination with colchicine); format: in vivo
Description: Sodium hydroxide (40 g, Fisher Scientific) was dissolved in de-ionized water (100 mL, dH2O) to provide a 10N solution. […] The resulting clear solution was cooled to 4-8° C., resulting in the formation of crystals, which were isolated by filtration, washed three times with de-ionized wa[…]) and dried at 37° C. The dried mono sodium urate crystals were sifted into an air-tight container for storage. […] Methylcellulose (0.4 g, Sigma) was dissolved in de-ionized water (100 mL) to provide a 0.4% solution used as vehicle. […] Test compounds were suspended in vehicle to provide the desired concentrations, and diluted accordingly. […] The animals were in apparent good health with no clinical signs of disease or distress. The rats were placed in quarantine with daily inspections, ear notched for identification purposes and shaved at the nape of the neck. The rats were anesthetized (isoflurane), and the nape of the neck was cleansed with 70% isopropanol (Butler Animal Health Supply) followed by povidone-iodine solution (Ricca Chemical Co.). Sterile air (30 mL, 0.2 μm, Millipore) was injected subcutaneously using a 23 G×11⁄2 inch needle fixed to a 30 mL syringe. The rats were returned to routine housing with no adverse reactions observed. The rats were anesthetized (isoflurane), and the nape of the neck was cleansed with 70% isopropanol (Butler Animal Health Supply) followed by povidone-iodine solution (Ricca Chemical Co.). Sterile air (15 mL, 0.11 μm, Millipore) was injected subcutaneously using a 23 G×11⁄2 inch needle fixed to a 20 mL syringe. The rats were returned to routine housing with no adverse reactions observed. The rats were weighed and sorted into treatment groups based on average body weight. As appropriate, the rats were dosed orally with test compound or vehicle (saline alone). […] Thirty minutes after SC injection or two hours after PO dosing, MSU (15 mL) was injected into the air pouch using an 18 G×2 inch needle fitted to a 20 mL syringe. Control group was injected with 15 mL sterile saline (vehicle). The injection sites were closed (collodion, Macron) and the rats returned to their cages with no adverse effects observed. Four hours after MSU/saline injection, the rats were anesthetized and heparinized saline (5 mL, 10 U/mL) was injected into the air pouch. […] An aliquot of the exudate was transferred to green Eppendorf tubes for total white blood cell (WBC) measurement. After allowing the MSU crystals to settle out for ten minutes, an aliquot of the exudate was transferred to heparinized microtainer tubes (Becton Dickinson) for differential white blood cell counts. The remainder of the exudate was centrifuged and an aliquot of the supernatants was dispensed to labeled clear Eppendorf tubes and stored at -80° C. The rats were exsanguinated into pre-chilled serum separator tubes, processed to serum, and 0.5 mL aliquot was stored at -80° C. in labeled Eppendorf tubes. […] [table]

[3] = 0.3 umol/kg PO + Colchicine 0.001 mpk SC, Group 6
[4] = 0.3 umol/kg PO + Colchicine 0.1 mpk SC, Group 8
[5] = 3.0 umol/kg PO + Colchicine 0.001 mpk SC, Group 7
[6] = 3.0 umol/kg PO + Colchicine 0.1 mpk SC, Group 9
[7] = 10 umol/kg PO + Colchicine 0.3 mpk SC, Group 10

In the case of `COc1cc2c(c(OC)c1OC)-c1ccc(OC)c(=O)cc1[C@@H](NC(C)=O)CC2` [Colchicine, COLCHICINE, reference compound], the “Avg Exudate Vol” value ([1]; 0.1 mpk (PO), Group 3) is reported as 9.7 mL, the “Avg Total WBC” value ([1]; 0.1 mpk (PO), Group 3) is reported as 221 ×10^6 and the Neutrophils ([1]; 0.1 mpk (PO), Group 3) is reported as 163 ×10^6. The “Avg Exudate Vol” value ([2]; 0.3 mpk SC, Group 3) was 12.4 mL, the “Avg Tot WBC” value ([2]; 0.3 mpk SC, Group 3) was 120 ×10^6 and the Neutrophils ([2]; 0.3 mpk SC, Group 3) was 101.9 ×10^6. For the same compound, the “Avg Exudate Vol” value ([2]; 0.5 mpk SC, Group 4) was 8.8 mL, the “Avg Tot WBC” value ([2]; 0.5 mpk SC, Group 4) was 58 ×10^6 and the Neutrophils ([2]; 0.5 mpk SC, Group 4) was 42.7 ×10^6. The “Avg Exudate Vol” value ([2]; 1.0 mpk SC, Group 5) was 5.6 mL, the “Avg Tot WBC” value ([2]; 1.0 mpk SC, Group 5) was 16 ×10^6 and the Neutrophils ([2]; 1.0 mpk SC, Group 5) was 9.8 ×10^6.
In the case of `CC[C@@H](Nc1c(Nc2cccc(C(=O)N(C)C)c2O)c(=O)c1=O)c1ccc(C)o1` [Compound 2, (R)-2-hydroxy-N,N-dimethyl-3-((2-((1-(5-methylfuran-2-yl)propyl)amino)-3,4-dioxocyclobut-1-en-1-yl)amino)benzamide], the “Avg Exudate Vol” value [1, 3] is reported as 9.6 mL, the “Avg Total WBC” value [1, 3] is reported as 337 ×10^6 and the Neutrophils [1, 3] is reported as 246 ×10^6. The “Avg Exudate Vol” value [1, 4] was 7.9 mL, the “Avg Total WBC” value [1, 4] was 153 ×10^6 and the Neutrophils [1, 4] was 123 ×10^6. For the same compound, the “Avg Exudate Vol” value ([1]; 0.3 umol/kg PO, Group 4) was 9.8 mL, the “Avg Total WBC” value ([1]; 0.3 umol/kg PO, Group 4) was 365 ×10^6 and the Neutrophils ([1]; 0.3 umol/kg PO, Group 4) was 268 ×10^6. For the same compound, the “Avg Exudate Vol” value [1, 5] was 8 mL, the “Avg Total WBC” value [1, 5] was 88 ×10^6 and the Neutrophils [1, 5] was 26.7 ×10^6. For the same compound, the “Avg Exudate Vol” value [1, 6] was 7.5 mL, the “Avg Total WBC” value [1, 6] was 76.8 ×10^6 and the Neutrophils [1, 6] was 27.2 ×10^6. For the same compound, the “Avg Exudate Vol” value ([1]; 3.0 umol/kg PO, Group 5) was 7.0 mL, the “Avg Total WBC” value ([1]; 3.0 umol/kg PO, Group 5) was 78.6 ×10^6 and the Neutrophils ([1]; 3.0 umol/kg PO, Group 5) was 16 ×10^6.
With `CC1CN(S(=O)(=O)Nc2cc(O[C@H](C)[C@@H](O)CO)nc(SCc3ccc(F)cc3)n2)C1` [Compound 4, N-(6-(((2R,3S)-3,4-dihydroxybutan-2-yl)oxy)-2-((4-fluorobenzyl)thio)pyrimidin-4-yl)-3-methylazetidine-1-sulfonamide] the “Avg Exudate Vol” value [2, 7] was 7.8 mL, the “Avg Tot WBC” value [2, 7] was 20 ×10^6 and the Neutrophils [2, 7] was 6.4 ×10^6. The “Avg Exudate Vol” value ([2]; 10.0 umol/kg PO, Group 6) was 12.5 mL, the “Avg Tot WBC” value ([2]; 10.0 umol/kg PO, Group 6) was 160 ×10^6 and the Neutrophils ([2]; 10.0 umol/kg PO, Group 6) was 102.1 ×10^6. The “Avg Exudate Vol” value ([2]; 30.0 umol/kg PO, Group 7) was 6.7 mL, the “Avg Tot WBC” value ([2]; 30.0 umol/kg PO, Group 7) was 28.7 ×10^6 and the Neutrophils ([2]; 30.0 umol/kg PO, Group 7) was 14 ×10^6. For the same compound, the “Avg Exudate Vol” value ([2]; 100 umol/kg PO, Group 8) was 6 mL, the “Avg Tot WBC” value ([2]; 100 umol/kg PO, Group 8) was 12 ×10^6 and the Neutrophils ([2]; 100 umol/kg PO, Group 8) was 3.8 ×10^6. For the same compound, the “Avg Exudate Vol” value ([2]; 300 umol/kg PO, Group 9) was 5.2 mL, the “Avg Tot WBC” value ([2]; 300 umol/kg PO, Group 9) was 8.1 ×10^6 and the Neutrophils ([2]; 300 umol/kg PO, Group 9) was 4.3 ×10^6.
